Each structure is given as a SMILES string. Bounds are passed on as bounds.

In data set [1] the test system is Mycobacterium smegmatis strain M6-3. The data set is described as follows: Relative antibacterial potency, paper-disc agar diffusion method. The class given is cell-based. As to conditions: relative to tallysomycin A standard=1000 mcg/mg. On the procedure:
The relative antibacterial potencies (tallysomycin A standard=1000 mcg/mg) of the tallysomycin derivatives were determined by the paper-disc agar diffusion method using Mycobacterium smegmatis strain M6-3 as the assay organism.

Data set [2] can be described thus: Acute toxicity, single dose LD50. As to conditions: ip, 30 days observation, copper-chelated form unless otherwise stated. The class given is in vivo, dd mice. On the procedure:
Graded doses of test compounds were administered intraperitoneally to groups of dd mice. The injection was given one time only or once daily for 9 consecutive days. Death or survival of the animals was recorded for 30 days after the last dose of test compound to calculate the single or multiple median lethal dose (LD50).

The test system of another data set is Melanotic melanoma B16. In words: Antitumor activity in mice, melanotic melanoma B16. As to conditions: copper-chelated form unless otherwise stated; for Antitumor activity B16 (ID50): ip, once daily 9 days, 50% inhibition of tumor growth, day 16, 23040 min; for Antitumor therapeutic index B16: single dose LD50/ID50. The class given is in vivo, BDF1 mice. From the text:
(§1) The antitumor activity of the tallysomycin derivatives was examined in four experimental tumor systems in mice. Lymphocytic leukemia P388 and Lewis lung carcinoma were implanted intraperitoneally into BDF1 mice of either sex at an inoculum size of 3×10^5 and 5×10^5 cells per mouse, respectively. Sarcoma 180 ascites tumor was inoculated intraperitoneally into male dd-strain mice with […] per mouse. Melanotic melanoma B16 was implanted subcutaneously into BDF1 mice with 5×10^5 cells per mouse. Twenty-four hours after the implantation of tumor cells, graded doses of test compounds were administered to mice intraperitoneally in an injection volume of 0.2 ml. per 10 grams of body weight. Test compounds were given once daily for 9 days (qd 1→9 schedule) except for the mice inoculated with Lewis lung carcinoma which were treated for 11 days (qd 1→11). Death or survival of the treated and non-treated (control) animals was recorded daily during the observation period of 45 days after the implantation of tumor cells, and the median survival time was calculated for each of the test (T) and control (C) groups. […] The actual dose giving a T/C of 125% was estimated by linear regression analysis and defined as the effective dose 125 or ED125. The effective dose 150 (ED150) was employed for the evaluation of antitumor effect against Sarcoma 180. In the B16 melanoma experiment the tumor size was measured on day 16 after tumor inoculation, and the dose giving 50% inhibition of tumor growth (ID50) was calculated from regression lines.
(§2) The antitumor therapeutic index was calculated for each derivative from the ratio of toxicity and antitumor activity.

In data set [3] the test system is Lymphocytic leukemia P388. In words: animal or person. In kind it is in vivo, BDF1 mice. As to conditions: copper-chelated form unless otherwise stated; for Antitumor activity P388 (ED125): ip, once daily 9 days, dose giving T/C survival of 125%; for Antitumor therapeutic index P388: single dose LD50/ED125.
Excerpt: as §1, §2

Data set [4] has as its system lysogenic bacterium E. coli W1709 (λ). In words: Prophage induction of lysogenic bacterium (ILB activity). In kind it is cell-based. As to conditions: t/c ratio of plaque counts greater than 3.0. The method, then:
The activity of prophage induction of lysogenic bacterium E. coli W1709 (λ) was determined according to the method disclosed by Lein et al. in Nature 196: 783-784 (1962). The plaque count was made on the agar plate containing test compound (t) and control plate (c). A t/c ratio of the plaque counts of greater than 3.0 was defined to be a significant level and lysogenic induction activity (ILB activity) was expressed by the minimum inducible concentration of the test compound.

The next data set has as its system Sarcoma 180. The data set is described as follows: animal or person. In kind it is in vivo, dd-strain mice. As to conditions: copper-chelated form unless otherwise stated; for Antitumor activity S180 (ED150): ip, once daily 9 days, effective dose 150, survival; for Antitumor therapeutic index S180: single dose LD50/ED150.
Excerpt: as §1, §2

The next data set deals with Mycobacterium 607. In words: MIC, two-fold agar dilution method. The class given is cell-based. As to conditions: nutrient agar. The method, then: (§3) The minimum inhibitory concentrations (MIC) of the semibiosynthetic tallysomycin derivatives of the present invention were determined against fungi and gram-positive, gram-negative and acid-fast bacteria by the two-fold agar dilution method. Nutrient agar was used for bacteria and Sabouraud agar for fungi. The results are shown in the table below comparatively with tallysomycin A and B.
(In general: In agar dilution, organisms are placed on agar that contains the substance at set levels.)

In data set [5] the test system is Staphylococcus aureus Smith. The data set is described as follows: MIC, two-fold agar dilution method. In kind it is cell-based. As to conditions: nutrient agar. The method, then:
as §3

The next data set deals with Proteus mirabilis A9554. In words: MIC, two-fold agar dilution method. In kind it is cell-based. To be noted: nutrient agar. The method, then:
as §3

For data set [6], the system named is Bacillus subtilis PCI 219. The data set is described as follows: MIC, two-fold agar dilution method. In kind it is cell-based. To be noted: nutrient agar. The method, then: as §3
The test system of another data set is Sarcina lutea PCI1001. The data set is described as follows: MIC, two-fold agar dilution method. In kind it is cell-based. To be noted: nutrient agar. On the procedure: as §3
For data set [7], the system named is Aspergillus fumigatus IAM 2593. The data set is described as follows: MIC, two-fold agar dilution method. The class given is cell-based. To be noted: Sabouraud agar. On the procedure: as §3
In another data set the test system is Escherichia coli NIHJ. In words: MIC, two-fold agar dilution method. The class given is cell-based. To be noted: nutrient agar. On the procedure: as §3
The test system of data set [8] is Candida albicans IAM 4888. The data set is described as follows: MIC, two-fold agar dilution method. The class given is cell-based. To be noted: Sabouraud agar. The method, then:
as §3

On to `Cc1c(N)nc(C(CC(N)=O)NCC(N)C(N)=O)nc1C(=O)NC(C(=O)NC(C)C(O)CC(=O)NC(C(=O)NC(OC1OC(C)C(N)C(O)C1O)C(O)c1nc(-c2nc(C(=O)NCCCN3CCOCC3)cs2)cs1)C(C)O)C(OC1OC(CO)C(O)C(O)C1OC1OC(CO)C(O)C(OC(N)=O)C1O)c1c[nH]cn1` (stereo not shown) [Tallysomycin S12b], for which the Antibacterial potency in data set [1] is 390 μ/mg. Also, in data set [2], the LD50 single dose is above 50 mg/kg/day. Moreover, the “Antitumor activity B16 (ID50)” value with Melanotic melanoma B16 turned out to be 1.30 mg/kg/day. Moreover, the “Antitumor therapeutic index B16” value in the data set with Melanotic melanoma B16 is reported as above 38. Moreover, the “Antitumor activity P388 (ED125)” value in [3] came out at 1.30 mg/kg/day. Moreover, the “Antitumor therapeutic index P388” value in data set [3] was above 38. For the same compound, the “ILB activity (minimum inducible concentration)” value (from here on “ILB activity”) in data set [4] was determined as 0.31 µg/mL. Also, in the data set with Sarcoma 180, the “Antitumor activity S180 (ED150)” value stood at 0.06 mg/kg/day. Besides, the “Antitumor therapeutic index S180” value in the data set on Sarcoma 180 is on record as above 833. In addition, the “minimum inhibitory concentration (MIC)” value in the data set on Mycobacterium 607 is listed as 0.2; in [5], 12.5; in the data set on Proteus mirabilis A9554, 50; in data set [6], 0.4; in the data set on Sarcina lutea PCI1001 it was 12.5; in [7], 25. Besides, the figures for the “minimum inhibitory concentration (MIC)” value (in the data set on Escherichia coli NIHJ; in data set [8]) were 1.6 and above 100, respectively.
Consider `Cc1c(N)nc(C(CC(N)=O)NCC(N)C(N)=O)nc1C(=O)NC(C(=O)NC(C)C(O)CC(=O)NC(C(=O)NC(OC1OC(C)C(N)C(O)C1O)C(O)c1nc(-c2nc(C(=O)NCCCN3CCCCC3C)cs2)cs1)C(C)O)C(OC1OC(CO)C(O)C(O)C1OC1OC(CO)C(O)C(OC(N)=O)C1O)c1c[nH]cn1` (stereo not shown) [Tallysomycin S13b], for which the Antibacterial potency in [1] is given as 1,090 μ/mg. In data set [2], this compound gave an LD50 single dose of 35 mg/kg/day. Moreover, the “Antitumor activity B16 (ID50)” value in the data set with Melanotic melanoma B16 stood at 0.23 mg/kg/day. In the data set on Melanotic melanoma B16, the “Antitumor therapeutic index B16” value is 152. In data set [3], the “Antitumor activity P388 (ED125)” value was 0.70 mg/kg/day. Moreover, the “Antitumor therapeutic index P388” value in data set [3] was determined as 50. In addition, the “ILB activity” value in data set [4] was found to be 0.08 µg/mL. In addition, the “Antitumor activity S180 (ED150)” value in the data set with Sarcoma 180 was 0.33 mg/kg/day. The “Antitumor therapeutic index S180” value with Sarcoma 180 worked out at 106. The “minimum inhibitory concentration (MIC)” value was 0.2 with Mycobacterium 607; 6.3 in [5]; 12.5 in the data set with Proteus mirabilis A9554; 0.8 in [6]; 6.3 in the data set with Sarcina lutea PCI1001; 12.5 in [7]. Besides, the results for the “minimum inhibitory concentration (MIC)” value (in the data set on Escherichia coli NIHJ; in data set [8]) were 0.4 and above 100, respectively.
As for `Cc1c(N)nc(C(CC(N)=O)NCC(N)C(N)=O)nc1C(=O)NC(C(=O)NC(C)C(O)CC(=O)NC(C(=O)NC(OC1OC(C)C(N)C(O)C1O)C(O)c1nc(-c2nc(C(=O)NCCCC(N)CC(=O)NCCCN)cs2)cs1)C(C)O)C(OC1OC(CO)C(O)C(O)C1OC1OC(CO)C(O)C(OC(N)=O)C1O)c1c[nH]cn1` (stereo not shown) [Tallysomycin S1a], the Antibacterial potency in [1] was 1,075 μ/mg. This compound also displayed an LD50 single dose in data set [2] of 25 mg/kg/day. The “Antitumor activity B16 (ID50)” value in the data set on Melanotic melanoma B16 was 0.84 mg/kg/day. Further, the “Antitumor therapeutic index B16” value in the data set with Melanotic melanoma B16 amounted to 30. Moreover, the “Antitumor activity P388 (ED125)” value in data set [3] is 1.2 mg/kg/day. For the same compound, in data set [3], the “Antitumor therapeutic index P388” value is 21. The “ILB activity” value in data set [4] turned out to be 0.16 µg/mL. Further, the “Antitumor activity S180 (ED150)” value in the data set on Sarcoma 180 came to 0.07 mg/kg/day. Further, the “Antitumor therapeutic index S180” value in the data set with Sarcoma 180 stood at 357. The “minimum inhibitory concentration (MIC)” value is recorded as 0.012 in the data set with Mycobacterium 607; 0.4 in data set [5]; 0.4 with Proteus mirabilis A9554; below 0.003 in data set [6]; 0.1 in the data set with Sarcina lutea PCI1001; 0.8 in data set [7]. Moreover, the figures for the “minimum inhibitory concentration (MIC)” value (with Escherichia coli NIHJ; in data set [8]) were 0.1 and 3.1, respectively.
Regarding `Cc1c(N)nc(C(CC(N)=O)NCC(N)C(N)=O)nc1C(=O)NC(C(=O)NC(C)C(O)CC(=O)NC(C(=O)NC(OC1OC(C)C(N)C(O)C1O)C(O)c1nc(-c2nc(C(=O)NCCCC(N)CC(=O)NCCCCN)cs2)cs1)C(C)O)C(OC1OC(CO)C(O)C(O)C1OC1OC(CO)C(O)C(OC(N)=O)C1O)c1c[nH]cn1` (stereo not shown) [Tallysomycin S10a], the Antibacterial potency in data set [1] is recorded as 1,450 μ/mg. Also, the LD50 single dose in data set [2] stood at 27 mg/kg/day. In addition, the “Antitumor activity B16 (ID50)” value in the data set with Melanotic melanoma B16 is listed as 0.39 mg/kg/day. In the data set with Melanotic melanoma B16, the “Antitumor therapeutic index B16” value was 69. Besides, the “Antitumor activity P388 (ED125)” value in data set [3] came out at 0.28 mg/kg/day. Moreover, the “Antitumor therapeutic index P388” value in data set [3] was determined as 96. For the same compound, the “ILB activity” value in data set [4] was 0.16 µg/mL. The “Antitumor activity S180 (ED150)” value in the data set with Sarcoma 180 stood at 0.08 mg/kg/day. For the same compound, the “Antitumor therapeutic index S180” value in the data set on Sarcoma 180 was 338. Moreover, the “minimum inhibitory concentration (MIC)” value worked out at 0.2 in the data set on Mycobacterium 607; 1.6 in [5]; 0.8 in the data set on Proteus mirabilis A9554; 0.04 in [6]; 0.4 with Sarcina lutea PCI1001; 1.6 in data set [7]. For the same compound, the figures for the “minimum inhibitory concentration (MIC)” value (with Escherichia coli NIHJ; in [8]) were 0.4 and 3.1, respectively.
In turn, `Cc1c(N)nc(C(CC(N)=O)NCC(N)C(N)=O)nc1C(=O)NC(C(=O)NC(C)C(O)CC(=O)NC(C(=O)NC(OC1OC(C)C(N)C(O)C1O)C(O)c1nc(-c2nc(C(=O)NCCCN(C)C)cs2)cs1)C(C)O)C(OC1OC(CO)C(O)C(O)C1OC1OC(CO)C(O)C(OC(N)=O)C1O)c1c[nH]cn1` (stereo not shown) [Tallysomycin S7b] showed an Antibacterial potency in [1] of 380 μ/mg. This compound also returned an LD50 single dose in data set [2] of 30 mg/kg/day. Besides, the “Antitumor activity B16 (ID50)” value in the data set with Melanotic melanoma B16 came out at 0.16 mg/kg/day. Further, in the data set on Melanotic melanoma B16, the “Antitumor therapeutic index B16” value worked out at 188. In addition, in data set [3], the “Antitumor activity P388 (ED125)” value is on record as 2.1 mg/kg/day. Besides, the “Antitumor therapeutic index P388” value in data set [3] came out at 14. Further, the “ILB activity” value in [4] is 0.08 µg/mL. Further, in the data set on Sarcoma 180, the “Antitumor activity S180 (ED150)” value was found to be 0.14 mg/kg/day. In the data set with Sarcoma 180, the “Antitumor therapeutic index S180” value came to 214. Besides, the “minimum inhibitory concentration (MIC)” value in the data set on Mycobacterium 607 worked out at 3.1; in data set [5] it was 6.3; with Proteus mirabilis A9554, 6.3; in [6] it was 0.1; with Sarcina lutea PCI1001, 12.5; in data set [7] it was 0.4. Moreover, the “minimum inhibitory concentration (MIC)” value with Escherichia coli NIHJ was 0.4; in [8] it was above 50.

The values above are taken from patent US4314028A, “Fermentation process for producing tallysomycin compounds” (priority 1980, dated 1982).
